Values belong to the molecule of their own block, whether it stands above or below them.
Assay: Fluorescence emission spectra of molecular rotors in glycerin and methanol
Type: physicochemical
Conditions: for Maximum Emission Wavelength: 1×10^−5 M in glycerin and methanol, excited at maximum excitation wavelength of each dye; for Fluorescence Intensity Ratios in Glycerol/Methanol: 1×10^−5 M, glycerol vs methanol solution
Description: The fluorescent dyes (molecular rotors) prepared in Examples 1-68 were separately dissolved in dimethyl sulfoxide to prepare respectively a mother liquor having a concentration of 1×10^−2 M, and each of the mother liquors was added individually to glycerin and methanol, and mixed uniformly, thereby solutions of a final concentration of 1×10^−5 M were prepared individually. According to the different fluorescent dyes, the fluorescence emission spectra of the fluorescent dyes were detected with the maximum excitation wavelengths of respective fluorescent dyes successively under the same conditions.

Molecule: 6-[2-cyano-2-(2-phenylpropionazole)-vinyl]-2-dimethylamino-thieno[3,2-B:2′,3′-D]thiophene [Molecular Rotor 12]
Maximum Emission Wavelength: 655 nm
Fluorescence Intensity Ratios in Glycerol/Methanol: 655

Molecule: CNc1cc2sc(/C=C(\C#N)C(=O)O)cc2s1 [Molecular Rotor 5, 6-(2-cyano-2-formic acid)-2-methylamino-thieno[3,2,b]thiophene]
Maximum Emission Wavelength: 555 nm
Fluorescence Intensity Ratios in Glycerol/Methanol: 1980

Molecule: COCCOCCOCCOCCOCCN(C)c1cc2sc(/C=C3\N=C(C)N(C)C3=O)cc2s1 [Molecular Rotor 6]
Maximum Emission Wavelength: 585 nm
Fluorescence Intensity Ratios in Glycerol/Methanol: 1453

Molecule: COCCNC(=O)/C(C#N)=C/c1cc2sc(N(C)CCC#N)cc2s1 [Molecular Rotor 7]
Maximum Emission Wavelength: 555 nm
Fluorescence Intensity Ratios in Glycerol/Methanol: 1877

Molecule: CN(C)c1cc2sc3cc(/C=C(\C#N)C(=O)OC(C)(C)C)sc3c2s1 [Molecular Rotor 11, 6-(2-cyano-2-tert-butyl formatevinyl)-2-dimethylamino-thieno[3,2-B:2′,3′-D]thiophene]
Maximum Emission Wavelength: 620 nm
Fluorescence Intensity Ratios in Glycerol/Methanol: 568

Molecule: CN(CC(=O)O)c1cc2sc3cc(/C=C(\C#N)c4nc5ccccc5s4)sc3c2s1 [Molecular Rotor 13, 6-[2-cyano-2-(1,3-benzothiazol-2-yl)-vinyl]-2-N-m ethylamino-N-acetic acid-dithiophene[3,2-B:2′3′-D]thiophene]
Maximum Emission Wavelength: 690 nm
Fluorescence Intensity Ratios in Glycerol/Methanol: 352

Molecule: COCCNC(=O)/C(C#N)=C/c1cc2sc3cc(N4CCCC4)sc3c2s1 [Molecular Rotor 15]
Maximum Emission Wavelength: 620 nm
Fluorescence Intensity Ratios in Glycerol/Methanol: 799

Molecule: COCCOCCOCCOCCOCCOCCOCCOCCOCCOCCOCCOCCOCCOCCOCCNc1cc2sc3cc(/C=C4\N=C(C)N(C)C4=O)sc3c2s1 [Molecular Rotor 18]
Maximum Emission Wavelength: 630 nm
Fluorescence Intensity Ratios in Glycerol/Methanol: 678

Molecule: CN1C(=O)/C(=C/c2cc3sc4cc(N(CCCl)CCCl)sc4c3s2)N=C1/C=C/c1ccccc1 [Molecular Rotor 20]
Maximum Emission Wavelength: 690 nm
Fluorescence Intensity Ratios in Glycerol/Methanol: 536

Molecule: CCCCN(CC(O)CO)c1ccc2cc(/C=C3/N=C(C)N(C)C3=O)sc2c1 (centres unmarked) [Molecular Rotor 27]
Maximum Emission Wavelength: 600 nm
Fluorescence Intensity Ratios in Glycerol/Methanol: 601

Molecule: CCCCN(CCO)c1ccc2cc(/C=C3N=C(/C=C/c4ccccc4)N(C)C/3=O)sc2c1 [Molecular Rotor 28]
Maximum Emission Wavelength: 650 nm
Fluorescence Intensity Ratios in Glycerol/Methanol: 569

Molecule: COCCNC(=O)/C(C#N)=C/c1cc2ccc(OC)cc2s1 [Molecular Rotor 30]
Maximum Emission Wavelength: 520 nm
Fluorescence Intensity Ratios in Glycerol/Methanol: 513

Molecule: COC(=O)/C(C#N)=C/c1cc2ccc(O)cc2s1 [Molecular Rotor 31]
Maximum Emission Wavelength: 535 nm
Fluorescence Intensity Ratios in Glycerol/Methanol: 572

Molecule: COc1c(/C=C(\C#N)C(=O)OC(C)(C)C)sc2c(OC)c(N(C)C)sc12 [Molecular Rotor 32]
Maximum Emission Wavelength: 570 nm
Fluorescence Intensity Ratios in Glycerol/Methanol: 612

Molecule: CN(C)c1ccc2c(c1)sc1cc(C=C(C#N)C#N)sc12 [Molecular Rotor 34]
Maximum Emission Wavelength: 626 nm
Fluorescence Intensity Ratios in Glycerol/Methanol: 1012

Molecule: CNc1ccc2c(c1)sc1cc(/C=C(\C#N)C(=O)O)sc12 [Molecular Rotor 37]
Maximum Emission Wavelength: 627 nm
Fluorescence Intensity Ratios in Glycerol/Methanol: 879

Second part, the molecule after the results:

Maximum Emission Wavelength: 557 nm
Fluorescence Intensity Ratios in Glycerol/Methanol: 892
Molecule: CN(CCOCCCS(=O)(=O)O)c1cc2sc(C=C(C#N)C#N)cc2s1 [Molecular Rotor 4, 6-(2,2-dicyano-vinyl)-2-[N-methyl-N-(3-sulfonic acid propyloxyethyl)]-thieno[3,2,b]thiophene]

Maximum Emission Wavelength: 520 nm
Fluorescence Intensity Ratios in Glycerol/Methanol: 851
Molecule: CC1(C)OC(=O)C(C#N)=C1c1cc2sc(O)cc2s1 [Molecular Rotor 10]

Maximum Emission Wavelength: 620 nm
Fluorescence Intensity Ratios in Glycerol/Methanol: 681
Molecule: CN(C)c1cc2sc3cc(C=C(C#N)C#N)sc3c2s1 [Molecular Rotor 14]

Maximum Emission Wavelength: 620 nm
Fluorescence Intensity Ratios in Glycerol/Methanol: 951
Molecule: CN(CC(O)C(O)C(O)C(O)CO)c1cc2sc3cc(/C=C(\C#N)C(=O)O)sc3c2s1 (centres unmarked) [Molecular Rotor 16]

Maximum Emission Wavelength: 618 nm
Fluorescence Intensity Ratios in Glycerol/Methanol: 888
Molecule: COC(=O)/C(C#N)=C/c1cc2sc3cc(N(CC(=O)O)CC(=O)O)sc3c2s1 [Molecular Rotor 17]

Maximum Emission Wavelength: 650 nm
Fluorescence Intensity Ratios in Glycerol/Methanol: 791
Molecule: CN1C(=O)/C(=C/c2cc3sc4cc(N(CCO)CCO)sc4c3s2)N=C1c1ccccc1 [Molecular Rotor 19]

Maximum Emission Wavelength: 620 nm
Fluorescence Intensity Ratios in Glycerol/Methanol: 544
Molecule: CCOC(=O)/C(C#N)=C/c1cc2sc3cc(N4CCOCC4)sc3c2s1 [Molecular Rotor 21]

Maximum Emission Wavelength: 608 nm
Fluorescence Intensity Ratios in Glycerol/Methanol: 568
Molecule: CN(CCO)c1ccc2cc(/C=C(\C#N)c3nc4ccccc4o3)sc2c1 [Molecular Rotor 23]

Maximum Emission Wavelength: 608 nm
Fluorescence Intensity Ratios in Glycerol/Methanol: 912
Molecule: N#C/C(=C\c1cc2ccc(N(CCO)CCO)cc2s1)c1nc2ccccc2s1 [Molecular Rotor 24]

Maximum Emission Wavelength: 570 nm
Fluorescence Intensity Ratios in Glycerol/Methanol: 615
Molecule: CCCCCCCCCCN(CCCCCCCCCC)c1ccc2cc(C=C(C#N)C#N)sc2c1 [Molecular Rotor 25]

Maximum Emission Wavelength: 610 nm
Fluorescence Intensity Ratios in Glycerol/Methanol: 712
Molecule: CN1C(=O)/C(=C\c2cc3ccc(N(C)CCOCCC(=O)O)cc3s2)N=C1c1ccccc1 [Molecular Rotor 26]

Maximum Emission Wavelength: 570 nm
Fluorescence Intensity Ratios in Glycerol/Methanol: 515
Molecule: COCCOCCOCCOCCOCCN(C)c1ccc2cc(/C=C(\C#N)C(=O)O)sc2c1 [Molecular Rotor 29]

Maximum Emission Wavelength: 565 nm
Fluorescence Intensity Ratios in Glycerol/Methanol: 531
Molecule: COc1c(/C=C(\C#N)C(=O)O)sc2c(OC)c(N(C)C)sc12 [Molecular Rotor 33]

Maximum Emission Wavelength: 626 nm
Fluorescence Intensity Ratios in Glycerol/Methanol: 476
Molecule: CN(CCO)c1ccc2c(c1)sc1cc(/C=C(\C#N)C(=O)OC(C)(C)C)sc12 [Molecular Rotor 35]

Maximum Emission Wavelength: 628 nm
Fluorescence Intensity Ratios in Glycerol/Methanol: 901
Molecule: COCCNC(=O)/C(C#N)=C/c1cc2sc3cc(N(CCO)CCO)ccc3c2s1 [Molecular Rotor 36]
